Assay results as given in patent US20180133327A1, “Cell Penetrating Peptides and Complexes Comprising the Same” (Amal Therapeutics SA, priority 2015, published 2018).

Columns and labels:
EG7-OVA tumor cells = test: Therapeutic effect of ZEBRA CPP truncation-based vaccines in the EG.7-OVA s.c. model; type: in vivo, C57BL/6 mice; settings: 10 nmol ZxxOVACD8CD4 and 20 μg MPLA s.c. at d5, d13 and d21 after tumor implantation
Protocol: C57BL/6 mice were implanted s.c. with 3×10^5 EG7-OVA tumor cells in the left flank and vaccinated three times (d5, d13 and d21) by s.c. injection of 10nmoles of Z-truncOVACD8CD4 peptides and 20 μg of MPLA in the right flank. Tumor size was measured with a caliper. […] B, D and F: survival curve of 7 mice per group. Median survival is indicated on the graph (m.s.). *, p<0.05; **, p<0.01; ***, p<0.001; ****, p<0.0001 (Log-Rang test).
To investigate the effects of different ZEBRA CPP truncation-based vaccines on tumor growth and survival, the effects of the constructs Z13OVACD8CD4, Z14OVACD8CD4, Z15OVACD8CD4 and Z18OVACD8CD4 (as described in Examples 4 and 6) were investigated in the EG.7-OVA s.c. model. On d0, C57BL/6 mice were implanted s.c. with 3×10^5 EG7-OVA tumor cells in the left flank and assigned to five different groups (control, Z13OVACD8CD4, Z14OVACD8CD4, Z15OVACD8CD4 and Z18OVACD8CD4). Mice were vaccinated three times (namely, at d5, d13 and d21 after tumor implantation) by s.c. injection of either 10 nmol of Z13OVACD8CD4, Z14OVACD8CD4, Z15OVACD8CD4 or Z18OVACD8CD4 and 20μg of MPLA in the right flank. Tumor size was measured with a caliper.

[1] = test system: OVA323-339-specific CD4+ T cells from OT-2 T cell TCR transgenic mice; test: In vitro epitope presentation assay, MHC class II (BMDCs, proliferation of OT-2 T cells); type: cell-based, mouse; settings: for in vitro proliferation of CD4 T cells (MHC class II presentation): BMDCs loaded 4 h with 300 nM ZxxOVACD8CD4, LPS o.n., 4 days
Protocol: (§1) BMDCs were loaded 4 h with 300nM of the different Zebra CPP truncation conjugated to both ovalbumin CD8 and CD4 epitopes (Z13OVACD8CD4, Z15OVACD8CD4 and Z18OVACD8CD4), then washed and incubated o.n. with 100 ng/ml of LPS. Efficient MHC class I or class II-restricted presentation was monitored after 4 days with CFSE-labeled naïve OVA257-264-specific CD8^+T cells from OT-1 T cell receptor (TCR) transgenic mice OT1 cells (A) or CFSE-labeled naïve OVA323-339-specific CD^+T cells from OT-2 T cell TCR transgenic mice respectively. As positive control, BMDCs were pulsed for 1 h with 5 uM peptide. Data from one experiment representative of three independent experiments.
(§2) In order to assess the capacity of the ZEBRA CPP truncations to stimulate an integrated immune response including CD4 T cells, antigenic cargoes were produced that included both CD8 and CD4 T cell epitopes from OVA, and conjugated to Z13, Z15 and Z18. Accordingly, the following constructs (Z13OVACD8CD4, Z15OVACD8CD4 and Z18OVACD8CD4) were synthesized:
(§3) Processing and presentation of the CD8 and CD4 T cell epitopes were monitored, as described in Example 2 for CD8 T cell epitopes, by measuring the in vitro proliferation of naïve OT-1 T cells (CD8 T cell epitopes; FIG. 4A) and OVA323-339-specific CD4^+ T cells from OT-2 T cell TCR transgenic mice, respectively (FIG. 4B). Briefly, OT-2 T cell TCR transgenic mice express TCR specific for MHC class II restricted OVA323-339.

[2] = test system: CFSE-labeled naïve OVA257-264-specific CD8+ T cells from OT-1 TCR transgenic mice; test: In vitro epitope presentation assay, MHC class I (BMDCs, proliferation of OT-1 T cells); type: cell-based, mouse; settings: for in vitro proliferation of CD8 T cells (MHC class I presentation): BMDCs loaded 4 h with 300 nM ZxxOVACD8CD4, LPS o.n., 4 days
Protocol: as §1
(§4) BMDCs were loaded with 0.3 μM of each Zebra CPP truncation (Z13 to Z20) conjugated to OVACD8 epitope as described above for 4 hours at 37° C., washed 3 times, then matured overnight at 37° C. with 100 ng/ml LPS (from Salmonella abortus, equi S-form, Enzo Life Sciences). Antigen-loaded mature BMDC were then mixed at a ratio of 1:10 with OT-1 T cell receptor (TCR) transgenic mice splenocytes that had been stained with 10 μM 5-(and 6) Carboxyfluorescein diacetate succinimidyl ester (CFSE) (Life Technologies). After 4 days co-incubation of spleen cells and BMDCs, antigen-specific proliferation was assessed by flow cytometry, measuring CFSE dilution on CD8 T cells and live-gated cells. OT-1 mice express TCR specific for MHC class I restricted OVA257-264.
as §2, §3

[3] = test system: OVA257-264-specific CD8+ T cells from OT-1 T cell receptor (TCR) transgenic mice; test: Identification of the best ZEBRA CPP truncations in vitro (proliferation assay) and in vivo (CD8 T cell immune response after vaccination); type: cell-based, mouse (C57BL/6; settings: each CPP truncation conjugated to OVACD8 epitope; in vitro BMDCs loaded with 0.3 μM, 4 days with OT-1 cells; in vivo 10 nmol s.c. wk0 and wk2 with anti-CD40 and Hiltonol
Description: The functionality of the different ZEBRA CPP truncations was validated both in vitro and in vivo, based on the capacity to stimulate MHC class-I restricted CD8 T cells specific for a model antigen OVA (OVA257-264-specific CD8^+ T cells from OT-1 T cell receptor (TCR) transgenic mice). This capacity should reflect transport of the OVA antigen cargo into APCs. The functional read-out of these experiments was proliferation of OVA-specific CD8 T cells in vitro (FIG. 2A), and for the in vivo studies, the induction of OVA-specific CD8 T cells in the blood of mice vaccinated with the different CPP-OVA conjugates together with adjuvant (FIG. 2B).
To assess the proliferation of OVA-specific CD8 T cells in vitro, bone marrow derived dendritic cells (BMDCs) were prepared from C57BL/6 mice as previously described (Santiago-Raber (2003), J. Exp. Med. 197, 777-788), and used at day 9-10 of culture.
as §4
To assess the induction of OVA-specific CD8 T cells in vivo, C57/BL6 mice were assigned to nine different groups (Z12 to Z20, respectively). Each group of mice was vaccinated by subcutaneous injection of 10 nmol of one selected Zebra CPP truncation (one selected from Z12 to Z20) conjugated to OVACD8 epitope as described above with 100 μg of anti-CD40 at week0 and week2. Mice were also injected with 50 μg of Hiltonol i.m. (right hind leg). Mice were bled 1 wk after the 2nd vaccination in order to assess OVA257-264-specific CD8 T cells.

[4] = ZxxOVACD8CD4, 300 nM, compared with Z13 or Z15

Sequence | survival time (EG7-OVA tumor cells) | tumor volume (EG7-OVA tumor cells) | in vitro proliferation of CD4 T cells (MHC class II presentation) [1] | efficiency of DC transduction and cargo delivery into the MHC class II antigen processing pathway [1, 4] | in vitro proliferation of CD8 T cells (MHC class I presentation) [2] | efficiency of DC transduction and cargo delivery into the MHC class I antigen processing pathway [2, 4] | promoting cross-presentation (stimulation of OVA-specific CD8 T cells) [3]
REVAAAKSSENDRLRLLLK [Z18] | only slight | only slight | proliferation of both CD8 and CD4 T cells occurred | less efficient | proliferation of both CD8 and CD4 T cells occurred | less efficient | best truncations for promoting cross-presentation
KRYKNRVASRKSRAKFK (CPP Z15) [ZEBRA CPP truncation] | only slight | only slight | proliferation of both CD8 and CD4 T cells occurred | – | proliferation of both CD8 and CD4 T cells occurred | – | best truncations for promoting cross-presentation
KRYKNRVASRKSRAKFKQLLQHYREVAAAK [Z14] | much more pronounced and highly significant | much more pronounced and highly significant | – | – | – | – | best truncations for promoting cross-presentation
KRYKNRVASRKSRAKFKQLLQHYREVAAAKSSENDRLRLLLK [Z13] | much more pronounced and highly significant | much more pronounced and highly significant | proliferation of both CD8 and CD4 T cells occurred | – | proliferation of both CD8 and CD4 T cells occurred | – | best truncations for promoting cross-presentation
